Measurements as given in PMC11492426, “Design, synthesis, and biological evaluation of novel quinoline-based EGFR/HER-2 dual-target inhibitors as potential anti-tumor agents” (RSC Advances, 2024).
Where two headings read alike, the source gives them in different places.

Experiments:
[1] = tested on: four human cancer cell lines; design: method as in ref 39 = [39]; Mohassab A. M. Hassan H. A. Abou-Zied H. A. Fujita M. Otsuka M. Gomaa H. A. Youssif B. G. Abdel-Aziz M. J. Mol. Struct. 2024 1297 136953; settings: read-out: GI50 against four cancer cell lines; cited from earlier work
EGFR [2] = molecular target: T1, EGFR (Homo sapiens, UniProt P00533); experiment: EGFR inhibitory assay (EGFR-TK assay)
T1 sequence (P00533 669-1210): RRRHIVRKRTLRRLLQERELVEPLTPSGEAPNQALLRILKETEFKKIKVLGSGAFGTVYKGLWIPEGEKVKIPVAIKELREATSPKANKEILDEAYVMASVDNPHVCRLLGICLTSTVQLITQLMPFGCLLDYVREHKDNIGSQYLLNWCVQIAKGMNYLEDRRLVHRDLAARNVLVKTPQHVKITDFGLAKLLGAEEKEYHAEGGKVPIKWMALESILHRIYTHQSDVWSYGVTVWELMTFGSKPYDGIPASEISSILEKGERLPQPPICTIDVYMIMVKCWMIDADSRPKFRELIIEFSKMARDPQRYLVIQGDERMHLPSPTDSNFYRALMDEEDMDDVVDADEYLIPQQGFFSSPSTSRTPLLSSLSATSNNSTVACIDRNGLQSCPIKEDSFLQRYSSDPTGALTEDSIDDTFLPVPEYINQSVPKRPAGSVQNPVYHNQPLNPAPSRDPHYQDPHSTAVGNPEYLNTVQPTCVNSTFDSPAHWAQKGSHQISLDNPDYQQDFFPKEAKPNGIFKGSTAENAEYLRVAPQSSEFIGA

[3] = tested on: Panc-1 pancreatic cancer cell line; experiment: Antiproliferative assay, Panc-1; type: cell-based; settings: Homo sapiens; Panc-1 pancreatic cancer cells; read-out: Antiproliferative activity IC50 ± SEM, Panc-1
HER2 = HER2 (Homo sapiens, UniProt P04626); experiment: HER2 inhibitory assay (ADP-Glo kinase assay)
HER2, sequence (P04626 676-1255 limits assumed): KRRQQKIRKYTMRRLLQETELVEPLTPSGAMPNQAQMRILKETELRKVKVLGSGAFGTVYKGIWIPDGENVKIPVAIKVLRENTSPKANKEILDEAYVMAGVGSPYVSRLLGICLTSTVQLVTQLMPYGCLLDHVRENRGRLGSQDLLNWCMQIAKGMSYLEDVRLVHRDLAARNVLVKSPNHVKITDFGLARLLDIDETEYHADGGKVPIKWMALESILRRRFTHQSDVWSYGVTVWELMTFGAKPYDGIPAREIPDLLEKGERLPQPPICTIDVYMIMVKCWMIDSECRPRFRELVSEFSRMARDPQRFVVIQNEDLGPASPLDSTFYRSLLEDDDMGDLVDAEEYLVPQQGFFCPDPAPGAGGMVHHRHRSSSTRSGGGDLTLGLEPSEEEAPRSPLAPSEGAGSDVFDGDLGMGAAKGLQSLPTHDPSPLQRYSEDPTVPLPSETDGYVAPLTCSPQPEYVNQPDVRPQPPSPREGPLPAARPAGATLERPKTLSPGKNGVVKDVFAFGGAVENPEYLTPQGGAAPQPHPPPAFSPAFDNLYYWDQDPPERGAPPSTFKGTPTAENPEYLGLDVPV

[4] = tested on: four human cancer cell lines (A-549, MCF-7, Panc-1, HT-29); experiment: Antiproliferative assay, average over four cancer cell lines; type: cell-based; settings: Homo sapiens, average IC50 over the four cancer cell lines
[5] = Cell viability assay (MTT) on MCF-10A normal cells; type: cell-based; settings: human, MCF-10A mammary gland epithelial normal cells, MCF-10A cells, four-day incubation
Procedure: The impact of compounds 3a–h and 5a–d on cell viability was evaluated using the human mammary (MCF-10A) gland epithelium normal cell line. The MTT assay was used to evaluate the cell viability of 3a–h and 5a–d after a four-day incubation period on MCF-10A cells.[46] Refer to Appendix A for more details.
The effect of new compounds 3a–h and 5a–d on cell viability was evaluated using the MCF-10A (human mammary gland epithelium) normal cell line.
4.2. Biological evaluation
4.2.1 Cell Viability assay (MTT assay)
MTT assay was performed to investigate the effect of the synthesized compounds on mammary epithelial cells (MCF-10A). The cells were propagated in medium consisting of Ham's F-12 medium/ Dulbecco's modified Eagle's medium (DMEM) (1:1) supplemented with 10% foetal calf serum, 2 mM glutamine, insulin (10 μg/mL), hydrocortisone (500 ng/mL) and epidermal growth factor (20 ng/mL). Trypsin ethylenediamine tetra acetic acid (EDTA) was used to passage the cells after every 2-3 days. 96-well flat-bottomed cell culture plates were used to seed the cells at a density of 10^4 cells mL-1. The medium was aspirated from all the wells of culture plates after 24 h followed by the addition of synthesized compounds (in 200 μL medium to yield a final concentration of 0.1% (v/v) dimethyl sulfoxide) into individual wells of the plates. Four wells were designated to a single compound. The plates were allowed to incubate at 37°C for 96 h. Afterwards, the medium was aspirated and 3-[4,5-dimethylthiazol-2-yl]-2,5-diphenyltetrazolium bromide (MTT) (0.4 mg/mL) in medium was added to each well and subsequently incubated for 3 h. The medium was aspirated and 150 μL dimethyl sulfoxide (DMSO) was added to each well. The plates were vortexed followed by the measurement of absorbance at 540 nm on a microplate reader. The results were presented as inhibition (%) of proliferation in contrast to controls comprising 0.1% DMSO.

[6] = tested on: MCF-7 breast cancer cell line; experiment: Antiproliferative assay, MCF-7; type: cell-based; settings: Homo sapiens, MCF7; MCF-7 breast cancer cells; read-out: Antiproliferative activity IC50 ± SEM, MCF-7
[7] = tested on: HT-29 colon cancer cell line; experiment: Antiproliferative assay, HT-29; type: cell-based; settings: Homo sapiens; HT-29 colon cancer cells; read-out: Antiproliferative activity IC50 ± SEM, HT-29
[8] = tested on: A-549 lung cancer cell line; experiment: Antiproliferative assay, A-549; type: cell-based; settings: Homo sapiens, A549; A-549 lung cancer cells; read-out: Antiproliferative activity IC50 ± SEM, A-549
EGFR [9] = molecular target: T1, EGFR; design: 645–1186; His6 (N); made in house; host or cells: Sf-9 insect cells (baculovirus vectors pBlueBacHis2B / pFASTBacHTc); method as in ref 38 (Makawana et al.); settings: ref 38 (Makawana et al.); cited from earlier work
BRAF^V600E [10] = tested on: BRAF^V600E; design: method as in ref 39 = [39]; Mohassab A. M. Hassan H. A. Abou-Zied H. A. Fujita M. Otsuka M. Gomaa H. A. Youssif B. G. Abdel-Aziz M. J. Mol. Struct. 2024 1297 136953; settings: cited from earlier work
BRAF^V600E [11] = tested on: BRAF^V600E; design: method as in PMID 33279248; settings: cited from earlier work

Row | IC50 (EGFR [2]) [nM] | IC50 [3] [nM] | IC50 (HER2) [nM] | GI50 [4] [nM] | IC50 [6] [nM] | IC50 [7] [nM] | IC50 [8] [nM] | Structure (SMILES) | GI50 [1] [nM] | viability at 96 h, 50 µM [5] [%] | other results
1 |  |  |  |  |  |  |  | CC(=NO)c1ccc(NC(=O)c2cc(-c3ccc(S(C)(=O)=O)cc3)nc3ccccc23)cc1 [Compound VIII] | 1200 |  | 
2 | 85 ± 5 | 41 ± 4 | 47 ± 3 | 39 | 35 ± 4 | 40 ± 3 | 39 ± 4 | Cc1ccc2[nH]c(=O)c(C=Nc3ccc(NS(=O)(=O)c4ncccn4)cc3)c(O)c2c1 [Compound 5b, N-(4-(((4-hydroxy-6-methyl-2-oxo-1,2-dihydroquinolin-3-yl)methylene)amino)phenyl)pyrimidine-2-sulfonamide] |  | 90 | 
3 | 93 ± 5 | 48 ± 4 | 53 ± 3 | 46 | 42 ± 4 | 48 ± 4 | 46 ± 4 | Cn1c(=O)c(C=Nc2ccc(NS(=O)(=O)c3ncccn3)cc2)c(O)c2ccccc21 [Compound 5d, N-(4-(((4-hydroxy-1-methyl-2-oxo-1,2-dihydroquinolin-3-yl)methylene)amino)phenyl)pyrimidine-2-sulfonamide] |  | 90 | melting point: 318 to 320 °C
4 |  |  |  |  |  |  |  | COc1cccc2c1C(=O)c1c(O)c3c(c(O)c1C2=O)C[C@@](O)(C(=O)CO)C[C@@H]3O[C@H]1C[C@H](N)[C@H](O)[C@H](C)O1 [doxorubicin] | 1400 |  | 
5 |  |  |  |  |  |  |  | COc1ccc(Oc2nc3ccc(C)cc3cc2/C=N/NC(=O)Cn2cc([N+](=O)[O-])nc2C)cc1 [Compound VII] |  |  | IC50 (EGFR [9]): 120 ± 50 nM

Row | Structure (SMILES) | IC50 (EGFR [2]) [nM] | IC50 [3] [nM] | IC50 (HER2) [nM] | GI50 [4] [nM] | IC50 [6] [nM] | IC50 [7] [nM] | IC50 [8] [nM] | GI50 [1] [nM] | viability at 96 h, 50 µM [5] [%] | other results
6 | C#Cc1cccc(Nc2ncnc3cc(OCCOC)c(OCCOC)cc23)c1 [Erlotinib, reference compound] |  | 30 ± 3 |  |  | 40 ± 3 | 30 ± 3 | 30 ± 3 |  |  | IC50 (BRAF^V600E [10]): […]; IC50 (BRAF^V600E [11]): […]
